Test results: patent publication US12492199B2, “Pyridopyrimidines as histamine H4-receptor inhibitors” (FAES FARMA, S.A., priority 2018, dated 2025)

These molecules were tested against human H4 receptor (Homo sapiens (Human), UniProt Q9H3N8) (assay: H4 Binding assay ([3H]histamine competition, membranes from CHO-K1 cells transfected with human H4 receptor)). Details: not given.
Protocol: Affinity for histamine H4-receptor was determined by H4 Binding assay:
• Membranes from CHO-K1 cells transfected with human H4 receptor and microplates of 96-well format were used. • For competition studies cell membranes were homogenated in Tris-HCl 50 mM, EDTA 5 mM, pH 7.4 and added to the microplate at the concentration of approximately 15 μg/well. […] Non specific binding was defined using 10 μM unlabeled histamine and the total incubation volume was 275 μl per well. • Incubations were performed under gentle agitation at 25° C. for 60 min and concluding with a rapid vacuum filtration using pre-soaked filters (0.5% polyethylenimine). After ten rapid washes with cold wash buffer (50 mM Tris-HCl buffer) the filter plates were dried at room temperature for 30 min. • Finally, scintillation liquid (Microscint 20) was added to the whole microplate in order to measure the radioactivity reattained on the filters using a specific scintillation counter (Top Count—NXT). […] H1 Binding Assay Materials

Compound	Ki [nM]
O=S(=O)(CCNc1nc(C2=CCNCC2)nc2cnc(Cl)cc12)Nc1ccccc1 [Example 41, 2-((6-chloro-2-(1,2,3,6-tetrahydropyridin-4-yl)pyrido[3,4-d]pyrimidin-4-yl)amino)-N-phenylethane-1-sulfonamide]	< 100

Same assay, conditions: affinity for human histamine H4 receptor, class symbols; read-out: ACTIVITY CLASS hH4R (Ki)

Ki [nM]	Compound
< 100	CN1CCN(c2nc(NCCS(=O)(=O)Nc3cccnc3)c3cc(Cl)ncc3n2)CC1 [Example 86, 2-((6-chloro-2-(4-methylpiperazin-1-yl)pyrido[3,4-d]pyrimidin-4-yl)amino)-N-(pyridin-3-yl)ethane-1-sulfonamide]
< 1000	CN1CCN(c2nc(NCc3nccs3)c3cc(Cl)ncc3n2)CC1 [Example 7, 6-chloro-2-(4-methylpiperazin-1-yl)-N-(thiazol-2-ylmethyl)pyrido[3,4-d]pyrimidin-4-amine]
< 1000	CC(C)c1cc2c(NCCc3cccs3)nc(N3CCN(C)CC3)nc2cn1 [Example 53, 6-isopropyl-2-(4-methylpiperazin-1-yl)-N-(2-(thiophen-2-yl)ethyl)pyrido[3,4-d]pyrimidin-4-amine]
< 100	O=S(=O)(CCNc1nc(N2CCN3CCCC3C2)nc2cnc(Cl)cc12)N1CCOCC1 (stereo not shown) [Example 38, 6-chloro-2-(hexahydropyrrolo[1,2-a]pyrazin-2(1H)-yl)-N-(2-(morpholinosulfonyl)ethyl)pyrido[3,4-d]pyrimidin-4-amine]
< 1000	CN1CCN(c2nc(NCCS(=O)(=O)Nc3cccc(OC(F)(F)F)c3)c3cc(Cl)ncc3n2)CC1 [Example 77, 2-((6-chloro-2-(4-methylpiperazin-1-yl)pyrido[3,4-d]pyrimidin-4-yl)amino)-N-(3-(trifluoromethoxy)phenyl)ethane-1-sulfonamide]
< 100	Cc1ccc(NS(=O)(=O)CCNc2nc(N3CCN(C)CC3)nc3cnc(Cl)cc23)cc1 [Example 84, 2-((6-chloro-2-(4-methylpiperazin-1-yl)pyrido[3,4-d]pyrimidin-4-yl)amino)-N-(p-tolyl)ethane-1-sulfonamide]
< 100	CN1CCN(c2nc(NCCS(=O)(=O)Nc3cccc(C(F)(F)F)c3)c3cc(Cl)ncc3n2)CC1 [Example 78, 2-((6-chloro-2-(4-methylpiperazin-1-yl)pyrido[3,4-d]pyrimidin-4-yl)amino)-N-(3-(trifluoromethyl)phenyl)ethane-1-sulfonamide]
< 100	CN1CCN(c2nc(NCCS(=O)(=O)NCc3ccccc3)c3cc(Cl)ncc3n2)CC1 [Example 15, N-benzyl-2-((6-chloro-2-(4-methylpiperazin-1-yl)pyrido[3,4-d]pyrimidin-4-yl)amino)ethane-1-sulfonamide]
< 1000	CN1CCN(c2nc(NCCc3nccs3)c3cc(Cl)ncc3n2)CC1 [Example 70, 6-chloro-2-(4-methylpiperazin-1-yl)-N-(2-(thiazol-2-yl)ethyl)pyrido[3,4-d]pyrimidin-4-amine]
< 100	CC(C)c1cc2c(NCc3cccs3)nc(N3CCN(C)CC3)nc2cn1 [Example 52, 6-isopropyl-2-(4-methylpiperazin-1-yl)-N-(thiophen-2-ylmethyl)pyrido[3,4-d]pyrimidin-4-amine]
< 1000	CN1CCN(c2nc(NCCc3cccs3)c3cc(Cl)ncc3n2)CC1 [Example 6, 6-chloro-2-(4-methylpiperazin-1-yl)-N-(2-(thiophen-2-yl)ethyl)pyrido[3,4-d]pyrimidin-4-amine]
< 1000	CN1CCN(c2nc(NCCS(=O)(=O)Nc3cccc(Cl)n3)c3cc(Cl)ncc3n2)CC1 [Example 87, 2-((6-chloro-2-(4-methylpiperazin-1-yl)pyrido[3,4-d]pyrimidin-4-yl)amino)-N-(6-chloropyridin-2-yl)ethane-1-sulfonamide]
< 100	CN1CCN(c2nc(NCCS(=O)(=O)Nc3ccc(Cl)cc3)c3cc(Cl)ncc3n2)CC1 [Example 82, 2-((6-chloro-2-(4-methylpiperazin-1-yl)pyrido[3,4-d]pyrimidin-4-yl)amino)-N-(4-chlorophenyl)ethane-1-sulfonamide]
< 1000	CN1CCN(c2nc(NCCS(=O)(=O)Nc3ccccc3N)c3cc(Cl)ncc3n2)CC1 [Example 75, N-(2-aminophenyl)-2-((6-chloro-2-(4-methylpiperazin-1-yl)pyrido[3,4-d]pyrimidin-4-yl)amino)ethane-1-sulfonamide]
< 1000	CN1CCN(c2nc(NCc3ncc[nH]3)c3cc(Cl)ncc3n2)CC1 [Example 8, N-((1H-imidazol-2-yl)methyl)-6-chloro-2-(4-methylpiperazin-1-yl)pyrido[3,4-d]pyrimidin-4-amine]
< 100	CN1CCN(c2nc(NCCS(N)(=O)=O)c3cc(Cl)ncc3n2)CC1 [Example 71, 2-((6-chloro-2-(4-methylpiperazin-1-yl)pyrido[3,4-d]pyrimidin-4-yl)amino)ethane-1-sulfonamide]
< 100	CN(c1ccccc1)S(=O)(=O)CCNc1nc(N2CCNCC2)nc2cnc(Cl)cc12 [Example 27, 2-((6-chloro-2-(piperazin-1-yl)pyrido[3,4-d]pyrimidin-4-yl)amino)-N-methyl-N-phenylethane-1-sulfonamide]
< 100	CN1CCN(c2nc(NCCS(=O)(=O)Nc3ccccc3)c3cc(Cl)ncc3n2)CC1 [Example 16, 2-((6-chloro-2-(4-methylpiperazin-1-yl)pyrido[3,4-d]pyrimidin-4-yl)amino)-N-phenylethane-1-sulfonamide]
< 100	COc1cccc(NS(=O)(=O)CCNc2nc(N3CCN(C)CC3)nc3cnc(Cl)cc23)c1 [Example 80, 2-((6-chloro-2-(4-methylpiperazin-1-yl)pyrido[3,4-d]pyrimidin-4-yl)amino)-N-(3-methoxyphenyl)ethane-1-sulfonamide]
< 1000	CCCc1cc2c(NCCc3cccs3)nc(N3CCN(C)CC3)nc2cn1 [Example 50, 2-(4-methylpiperazin-1-yl)-6-propyl-N-(2-(thiophen-2-yl)ethyl)pyrido[3,4-d]pyrimidin-4-amine]
< 100	O=S(=O)(CCNc1nc(N2CCN3CCCC3C2)nc2cnc(Cl)cc12)Nc1ccccc1 (stereo not shown) [Example 37, 2-((6-chloro-2-(hexahydropyrrolo[1,2-a]pyrazin-2(1H)-yl)pyrido[3,4-d]pyrimidin-4-yl)amino)-N-phenylethane-1-sulfonamide]
< 1000	Cc1cc(NS(=O)(=O)CCNc2nc(N3CCN(C)CC3)nc3cnc(Cl)cc23)n(C)n1 [Example 90, 2-((6-chloro-2-(4-methylpiperazin-1-yl)pyrido[3,4-d]pyrimidin-4-yl)amino)-N-(1,3-dimethyl-1H-pyrazol-5-yl)ethane-1-sulfonamide]
< 1000	CN1CCN(c2nc(NCCS(=O)(=O)Nc3ccc(C(F)(F)F)cc3)c3cc(Cl)ncc3n2)CC1 [Example 83, 2-((6-chloro-2-(4-methylpiperazin-1-yl)pyrido[3,4-d]pyrimidin-4-yl)amino)-N-(4-(trifluoromethyl)phenyl)ethane-1-sulfonamide]
< 100	O=S(=O)(CCNc1nc(N2CCNCC2)nc2cnc(Cl)cc12)Nc1ccccc1 [Example 26, 2-((6-chloro-2-(piperazin-1-yl)pyrido[3,4-d]pyrimidin-4-yl)amino)-N-phenylethane-1-sulfonamide]

Same assay, conditions: histamine H4 receptor binding

IC50 [nM]	Compound
889	CN1CCN(c2nc(NCc3cccs3)c3cnc(Cl)cc3n2)CC1 [Example 3P, reference compound]

Same assay, conditions: histamine H4 receptor binding; compounds initially evaluated at 1 μM

inhibition at 1 µM [%]	Compound
68	CN1CCN(c2nc(NCc3cccs3)c3cnc(Cl)cc3n2)CC1 [Example 3P, reference compound]

Same assay, conditions: histamine H4 receptor, comparative compounds; read-out: Ki

Ki [nM]	Compound
340	CN1CCN(c2nc(NCc3cccs3)c3cnc(Cl)cc3n2)CC1 [Example 3P, reference compound]
